pIC50, pKd: −log10 of the molar value.
Columns and labels:
[1] = target: T1, porcine pancreatic elastase (PPE) (Sus scrofa, UniProt P00772); assay: Intrinsic fluorescence quenching of PPE: Stern-Volmer, binding constants, thermodynamics; settings: for pKd: Ka binding constant; for ΔH / ΔS: van't Hoff, 298, 303, 310 K
T1 construct: purchased Sigma-Aldrich (St. Louis, MO, United States)
Method: Fluorescence measurements were performed using a model F-7000 fluorescence spectrometer (Hitachi, Tokyo, Japan). Elastase solution (2,000 μL in Tris–HCl buffer solution) was mixed with inhibitor solutions at different concentrations in a 1.0 cm quartz cell at 298, 303, and 310 K. The final concentrations of the four natural flavonoids and elastase were identical to those used to obtain the synchronous fluorescence spectra. The fluorescence emission spectra were recorded within the range of 285–500 nm, following excitation at 280 nm. The excitation and emission slit widths were set as 2.5 nm. The scan speed was 1,200 nm/min and the photomultiplier tube (PMT) voltage was 630 V. Fluorescence intensities were corrected for inner filter and dilution effects before analyzing the binding and quenching data.
To determine the type of fluorescence quenching of the monomer interacting with PPE, the Stern-Volmer equation was used ([20]–[22]):
F0/F=KSV[Q]+1=Kqτ0[Q]+1 (2)
where F0 and F are the fluorescence intensities of PPE before and after the addition of different monomer solutions, respectively, Ksv is the quenching constant, [Q] is the concentration of different drugs, Kq is the quenching rate constant, τ0 is the average fluorescence lifetime of the substance in the absence of a quencher, and τ0 for the general biological macromolecule is 1 × 10^−8 s ([20], [23], [24]).
According to the correction formula, the binding constant (Ka) and number of binding points (n) for the actions of the four monomers and PPE were calculated as follows ([25]–[27]):
lgF0−F/F=nlgKa−nlg1/[Q0]−[P0]F0−F/F0 (3)
where [ Q0 ] and [P0] are the drug and PPE concentrations, respectively.
where K is the binding constant of the interaction, R is the gas constant, ΔH, ΔG, and ΔS are enthalpy, Gibbs energy, and entropy change.

[2] = target: T1, porcine pancreatic elastase (PPE); assay: FT-IR spectra of PPE-monomer complexes; settings: PPE 10 μM, flavonoid 100 μM
Method: FTIR spectra were obtained using the potassium bromide (KBr) compression method with a Nicolet IS-50 spectrometer (Thermo Fisher Scientific, Waltham, MA, United States). […] The sheets were then dried at 45 °C and pressed. Blank background for the PBS buffer sheets. The spectral region between 4,000 and 500 cm^−1 was selected to examine changes in the secondary structure resulting from enzyme-drug interactions. All samples were assayed after drying and the experimental conditions were consistent for each group of assays.

[3] = target: T1, porcine pancreatic elastase (PPE); assay: UV-vis absorption spectra of PPE with flavonoid; settings: PPE 5 μM, flavonoid 15 μM, 298 K
Method: The UV–vis absorption spectra of porcine pancreatic elastase PPE (2.5 mL) were recorded using a Cary 300 spectrometer (Agilent, San Diego, CA, United States) in a quartz cuvette with a path length of 10 mm. PPE concentration was fixed at 5 μM and the drug concentrations were 0 and 15 μM. Tris–HCl solution (pH 7.6) was used as the blank. The control group was a solution of four flavonoid monomers at a final concentration of 15 μM. The spectra were recorded in the range of 200–500 nm with a slit width of 2 nm at 298 K.

[4] = target: T1, porcine pancreatic elastase (PPE); assay: Elastase inhibition assay, fluorescent substrate MeOSuc-Ala-Ala-Pro-Val-AMC; type: biochemical; settings: for pIC50: 298 K; for inhibition at 22.5 µM: read-out: Inhibition rate of PPE
Method: Elastase was selected as the enzyme target and MeOSuc-Ala-Ala-Pro-Val-AMC as the substrate for the enzymatic reaction. According to the principle of enzyme reactions, an in vitro target enzyme drug screening model was established by measuring the relative fluorescence intensity for drug screening and evaluation. The inhibition rate was measured using a FlexStation3 multifunctional plate reader (Molecular Devices, Shanghai, China). Elastase solution (50 μL, 5 × 10^−7 mol/L) was mixed with a fluorescent substrate (50 μL, 2 × 10^−5 mol/L), and Tris–HCl buffer solution was added to obtain a total volume of 200 μL. […] The excitation wavelength was adjusted to 380 nm, and the emission wavelength was recorded in the range 420–540 nm. A 200 μL buffer solution was used as the blank for reference. The relative fluorescence values of pure enzyme activity were recorded. Four monomer solutions of the same concentration were added separately and their relative fluorescence values were measured under the same conditions. The concentration of each monomer was varied in different samples to obtain IC50 values. Inhibition rate (%) was calculated as follows:
Inhibition rate(%)=RFUPPE−RFUDrugs+PPE/RFUPPE×100% (1)
where the relative fluorescence unit (RFU) PPE refers to the relative fluorescence measured when only PPE and the fluorescent substrate are present without any inhibitors, and RFU Drugs+PPE refers to the relative fluorescence measured when both PPE and the test drug inhibitor are present.

[5] = target: T1, porcine pancreatic elastase (PPE); assay: Fluorescence resonance energy transfer and binding distance; settings: [PPE] = [flavonoid] = 10 μM, 298 K
Method: The PPE-quercetin, PPE-hyperoside, PPE-luteolin, and PPE-luteoloside binding distances were calculated according to the fluorescence resonance energy transfer theory ([31]–[33]):
J=∑FD(λ)εA(λ)λ^4Δλ/∑FD(λ)Δλ (9)
where k^2 is the dipole moment spatial orientation factor, usually taking the average 2/3; φ is the quantum efficiency of PPE, usually a quantum efficiency of Try residues of 0.15; n is the refractive index of the medium, representing the average of water and organic matter; J is the overlap integral of the absorption spectra and the fluorescence spectra; and ɛA(λ) is the molar extinction coefficient ([34]–[36]).

[6] = target: T1, porcine pancreatic elastase (PPE); assay: CD spectroscopy, secondary structure of PPE; settings: PPE 5 μM, flavonoid 2.5 μM, 298 K; for α-helix (%): PPE alone 7.50; for Random coil (%): PPE alone 41.00; for β-sheet (%): PPE alone 51.50
Method: The CD spectra of PPE, PPE-quercetin, PPE-hyperoside, PPE-luteolin, and PPE-luteoloside were obtained using an MOS-500 CD spectrometer (Biologic Science Instruments, Seyssinet-Pariset, France). […] Set at a temperature of 298 K. The signal was recorded from 190 to 260 nm using a path length of 1 mm, acquisition duration of 0.5 s, and scanning step of 2 nm. The CD spectra were averaged after performing three scans and correcting for the background value of the phosphate buffer. All results were documented as CD ellipticity in degrees.

[7] = target: T1, porcine pancreatic elastase (PPE); assay: Synchronous fluorescence spectra of PPE; settings: Δλ = 60 nm, PPE 2 μM, flavonoid 0-80 μM, 298 K
Method: For the synchronous fluorescence spectroscopy experiments, the configuration of the solution preparation was the same as that used in experiment 2.3. Synchronous fluorescence spectra of PPE-quercetin, PPE-hyperoside, PPE-luteolin, and PPE-luteoloside were recorded at 298 K.

elastase = target: elastase; parameters: method as in doi:10.19894/j.issn.1000-0518.210248; settings: elastase inhibition, earlier study ref 61; cited from earlier work

T1 sequence (P00772 27-266): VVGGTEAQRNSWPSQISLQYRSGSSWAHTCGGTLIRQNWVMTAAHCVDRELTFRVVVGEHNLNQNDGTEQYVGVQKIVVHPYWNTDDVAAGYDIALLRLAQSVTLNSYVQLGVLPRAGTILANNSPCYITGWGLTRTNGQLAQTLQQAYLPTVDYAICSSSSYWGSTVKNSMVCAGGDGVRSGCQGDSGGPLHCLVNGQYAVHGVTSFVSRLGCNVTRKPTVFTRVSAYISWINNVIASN

Row | SMILES | KSV Stern-Volmer quenching constant ([1]; 298 K) | Kq quenching rate constant ([1]; 298 K) | n number of binding sites ([1]; 298 K) | KSV Stern-Volmer quenching constant ([1]; 303 K) | Kq quenching rate constant ([1]; 303 K) | n number of binding sites ([1]; 303 K) | ΔG ([1]; 303 K) | KSV Stern-Volmer quenching constant ([1]; 310 K) | Kq quenching rate constant ([1]; 310 K) | n number of binding sites ([1]; 310 K) | ΔG ([1]; 310 K) | pKd ([1]; 298 K) | ΔH [1] | ΔS [1] | amide I band of PPE after addition (from 1638.45) [2] | inhibition at 22.5 µM [4] | R0 [5] | binding distance r [5] | decrease of α-helical structure [6] | α-helix (%) [6] | further results
1 | O=c1c(O[C@@H]2O[C@H](CO)[C@H](O)[C@H](O)[C@H]2O)c(-c2ccc(O)c(O)c2)oc2cc(O)cc(O)c12 [hyperoside] | 5.47 10^4 L•mol^−1 | 5.47 10^12 L•mol^−1•s^−1 | 1.58 | 4.85 10^4 L•mol^−1 | 4.85 10^12 L•mol^−1•s^−1 | 1.56 | -6.874 kcal/mol | 4.78 10^4 L•mol^−1 | 4.78 10^12 L•mol^−1•s^−1 | 1.35 | -6.881 kcal/mol | 4.61 | -6.5753 kcal/mol | −4.108 J/(mol•K) | 1633.14 cm⁻¹ | 41.1% | 1.86 nm | 2.40 nm | 1.20% | 6.30% | pKd ([1]; 303 K): 4.53; pKd ([1]; 310 K): 4.50; blue shift of maximum absorption peak of PPE (275 nm) [3]: 4 nm; pIC50 [4]: 4.51; Random coil (%) [6]: 46.34%; β-sheet (%) [6]: 47.36%; red shift of Trp synchronous fluorescence [7]: 7 nm
2 | O=c1cc(-c2ccc(O)c(O)c2)oc2cc(O)cc(O)c12 [luteolin] | 1.15 10^4 L•mol^−1 | 1.15 10^12 L•mol^−1•s^−1 | 0.97 | 1.04 10^4 L•mol^−1 | 1.04 10^12 L•mol^−1•s^−1 | 1.11 | -6.511 kcal/mol | 0.98 10^4 L•mol^−1 | 0.98 10^12 L•mol^−1•s^−1 | 1.17 | -6.52 kcal/mol | 4.08 | -6.0327 kcal/mol | −6.585 J/(mol•K) | 1632.53 cm⁻¹ | 54.3% | 1.97 nm | 2.67 nm | 0.96% | 6.54% | pKd ([1]; 303 K): 4.02; pKd ([1]; 310 K): 3.99; blue shift of maximum absorption peak of PPE (275 nm) [3]: 3 nm; pIC50 [4]: 4.74; red shift of Trp synchronous fluorescence [7]: 4 nm
3 | O=c1cc(-c2ccc(O)c(O)c2)oc2cc(O[C@@H]3O[C@H](CO)[C@@H](O)[C@H](O)[C@H]3O)cc(O)c12 [luteoloside] | 1.79 10^4 L•mol^−1 | 1.79 10^12 L•mol^−1•s^−1 | 0.95 | 1.66 10^4 L•mol^−1 | 1.66 10^12 L•mol^−1•s^−1 | 0.93 | -5.92 kcal/mol | 1.57 10^4 L•mol^−1 | 1.57 10^12 L•mol^−1•s^−1 | 1.07 | -6.042 kcal/mol | 4.28 | -0.6989 kcal/mol | 72.107 J/(mol•K) | 1634.55 cm⁻¹ | 12.2% | 1.99 nm | 2.71 nm | 1.99% | 5.51% | ΔG ([1]; 298 K): -5.834 kcal/mol; pKd ([1]; 303 K): 4.27; pKd ([1]; 310 K): 4.26; blue shift of maximum absorption peak of PPE (275 nm) [3]: 8 nm; pIC50 [4]: 4.21; Random coil (%) [6]: 43.91%; β-sheet (%) [6]: 50.58%; red shift of Trp synchronous fluorescence [7]: 1 nm
4 | O=c1c(O)c(-c2ccc(O)c(O)c2)oc2cc(O)cc(O)c12 [quercetin] | 0.59 10^4 L•mol^−1 | 0.59 10^12 L•mol^−1•s^−1 | 1.13 | 0.58 10^4 L•mol^−1 | 0.58 10^12 L•mol^−1•s^−1 | 0.99 | -5.208 kcal/mol | 0.52 10^4 L•mol^−1 | 0.52 10^12 L•mol^−1•s^−1 | 0.80 | -5.284 kcal/mol | – | -1.901 kcal/mol | 45.6521 J/(mol•K) | 1633.59 cm⁻¹ | 22.2% | 1.91 nm | 2.82 nm | 1.14% | 6.36% | ΔG ([1]; 298 K): -5.153 kcal/mol; Random coil (%) [6]: 44.59%; β-sheet (%) [6]: 49.05%
5 | CC(C)(C)C(=O)Oc1ccc(S(=O)(=O)Nc2ccccc2C(=O)NCC(=O)O)cc1 [sivelestat sodium] | – | – | – | – | – | – | – | – | – | – | – | – | – | – | – | – | – | – | – | – | pIC50 (elastase): 5.00

— article PMC12633754, “Elastase inhibition by natural flavonoids: mechanistic insights and potential therapeutic applications” (Frontiers in Nutrition, 2025)
